Data taken from US20260265194A1, “COMPOUNDS FOR THE TREATMENT OF HIV” (THE TRUSTEES OF THE UNIVERSITY OF PENNSYLVANIA, priority 2022, published 2026).

Columns and labels:
[1] = system: mutant HIV-1AD8 batches 130_3 and 130_C; assay: Entry inhibition of CD4mc resistant AD8 variants; type: cell-based; settings: up to 300 μM
Protocol: CD4mc resistant variants of Clade B virus AD8 were also selected by incubating infected host cells with increasing concentrations of BNM-III-170. […] These resistant strains of AD8 were sequenced to find specific mutations in the gp120 monomer that conferred the greatest resistance to BNM-III-170. Of these mutations examined, E64G, S375N, and I424T conferred the greatest resistance to treatment with compounds of the disclosure.
Each of the mutations individually were able to increase resistance to BNM-III-170, but were most resistant when combined as in HIV-1AD8 isolates 130_3 and 130_C. […] This was true with the individual mutations discussed above, as well as the original resistant mutants 130_3 and 130_C.

HIVJR-FL-infected cells = assay: ADCC killing of HIVJR-FL-infected cells; type: cell-based, HIV-1
Source text: (§1) The ability of the compounds of the disclosure to enhance Ab recognition of Env on the surface of infected cells and mediate ADCC was examined. Via HIV+ plasma binding, it was observed that CJF-III-192 was able to enhance Ab recognition to a greater degree than BNM-III-170 (7-fold vs 2-fold enhancement vs DMSO) for JR-FL infected primary T-cells. Additionally, when comparing the % ADCC activity of these two compounds, it was observed that CJF-III-192 could achieve up to 8% killing of HIVJR-FL-infected cells, while BNM-III-170 could only attain levels up to 5%. This effect on ADCC activity was more pronounced with HIVCH58TF-infected cells; 18% killing for CJF-III-192 vs. 8% killing with […].

HIVCH58TF-infected cells = assay: ADCC killing of HIVCH58TF-infected cells; type: cell-based, HIV-1
Source text: as §1

BG505, cladeA HIV-1 = assay: Single-round pseudovirus infection inhibition (luciferase), BG505 Env; type: cell-based; settings: Cf2Th target cells expressing CD4 and CCR5
Protocol: (§2) Cell lines. 293T cells were grown in Dulbecco's modified Eagle's medium (DMEM) (Life Technologies, Wisent Inc.) supplemented with 10% fetal bovine serum (FBS) (Life Technologies, VWR) and 100 µg/ml of penicillin-streptomycin (Life Technologies, Wisent Inc.). Cf2Th cells stably expressing the human CD4 and CCR5 coreceptors for HIV-1 were grown in the same medium supplemented with 0.4 mg/ml of G418 and 0.2 mg/ml of hygromycin.
(§3) CD4-mimetic compound. The compounds of the disclosure (CD4mc) were dissolved in dimethyl sulfoxide (DMSO) at a stock concentration of 10 mM and diluted to the appropriate concentration for antiviral assays.
(§4) Production of recombinant pseudoviruses expressing luciferase. 293T cells were transfected with pSVIIIenv plasmids expressing Env from HIV-1 strain variants, the pCMVΔP1Δenv HIV-1 Gag-Pol packaging construct and the firefly luciferase-expressing HIV-1 vector at a 1:1:3 μg DNA ratio using effectene transfection reagent (Qiagen). […]
(§5) Virus infectivity and inhibition. […] Forty-eight h later, the target cells were lysed and the luciferase activity was measured.
(§6) For inhibition assays, the compounds to be tested were incubated at various concentrations with recombinant pseudoviruses for 1 h at 37° C. […] Forty-eight hours later, the target cells were lysed and the luciferase activity was measured. […]

HIV-1 AD8 = assay: Single-round pseudovirus infection inhibition (luciferase), AD8 Env; type: cell-based; settings: Cf2Th target cells expressing CD4 and CCR5
Protocol: as §2, §3, §4, §5, §6

[2] = system: Env on JR-FL infected primary T-cells; assay: HIV+ plasma binding (Ab recognition of Env on infected cells); type: cell-based, HIV-1
Source text: as §1

HIV-1 JR-FL = assay: Single-round pseudovirus infection inhibition (luciferase), JR-FL Env; type: cell-based; settings: Cf2Th target cells expressing CD4 and CCR5
Protocol: as §2, §3, §4, §5, §6

Structure (SMILES): CNCc1ccc2c(c1)C[C@H](CN=C(N)N)[C@H]2NC(=O)C(=O)Nc1ccc(Cl)c(F)c1.O=C(O)C(F)(F)F.O=C(O)C(F)(F)F [BNM-III-170]
- entry inhibition of resistant mutants [1]: completely resistant
- % ADCC activity (killing) (HIVJR-FL-infected cells): up to 5%
- % ADCC activity (killing) (HIVCH58TF-infected cells): 8%
- IC50 (BG505, cladeA HIV-1): > 300 µM
- IC50 (HIV-1 AD8): 1.7 µM
- enhancement of Ab recognition vs DMSO [2]: 2 fold
- IC50 (HIV-1 JR-FL): 12.2 µM
